What was measured:
Assay in all cases: Kinase profiling in a biochemical assay panel (mobility shift assays and ELISA), %-inhibition at 1 μM; selectivity entropy
[1] = target: T1, panel of more than 300 wild-type and mutant kinases (313 kinase panel) (Homo sapiens, UniProt Q9UHD2)
T1 sequence (Q9UHD2 1-729): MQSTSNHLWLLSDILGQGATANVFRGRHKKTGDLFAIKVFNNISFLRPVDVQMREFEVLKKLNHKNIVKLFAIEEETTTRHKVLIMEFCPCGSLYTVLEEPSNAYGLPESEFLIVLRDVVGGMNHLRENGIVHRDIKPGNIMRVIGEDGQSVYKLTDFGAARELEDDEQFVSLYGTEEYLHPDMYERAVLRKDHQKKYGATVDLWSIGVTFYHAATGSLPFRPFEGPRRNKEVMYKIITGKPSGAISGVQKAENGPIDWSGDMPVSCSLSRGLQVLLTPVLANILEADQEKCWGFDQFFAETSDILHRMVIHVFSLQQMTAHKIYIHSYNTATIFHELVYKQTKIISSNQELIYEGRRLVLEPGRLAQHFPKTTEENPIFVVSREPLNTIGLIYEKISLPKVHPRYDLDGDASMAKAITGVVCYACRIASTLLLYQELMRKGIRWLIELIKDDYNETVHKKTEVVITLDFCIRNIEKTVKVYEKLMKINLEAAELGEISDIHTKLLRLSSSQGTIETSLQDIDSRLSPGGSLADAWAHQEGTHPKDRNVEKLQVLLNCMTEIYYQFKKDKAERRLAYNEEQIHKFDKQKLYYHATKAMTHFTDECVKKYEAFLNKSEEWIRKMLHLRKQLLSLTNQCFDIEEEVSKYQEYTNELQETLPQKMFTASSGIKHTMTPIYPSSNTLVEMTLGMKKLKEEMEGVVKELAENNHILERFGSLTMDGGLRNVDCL

[2] = target: panel of more than 300 wild-type and mutant kinases (313 kinase panel) (Homo sapiens, UniProt P11802)
panel of more than 300 wild-type and mutant kinases (313 kinase panel) (Homo sapiens, UniProt P11802), sequence (P11802 whole entry, change not shown): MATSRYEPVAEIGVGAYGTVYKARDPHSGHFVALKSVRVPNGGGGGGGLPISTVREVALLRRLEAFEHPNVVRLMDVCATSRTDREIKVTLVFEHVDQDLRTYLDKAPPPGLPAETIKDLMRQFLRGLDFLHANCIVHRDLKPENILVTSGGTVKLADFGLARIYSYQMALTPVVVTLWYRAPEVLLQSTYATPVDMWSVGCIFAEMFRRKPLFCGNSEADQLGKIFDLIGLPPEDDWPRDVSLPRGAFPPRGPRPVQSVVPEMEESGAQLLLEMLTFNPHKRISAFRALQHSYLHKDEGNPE

[3] = target: panel of more than 300 wild-type and mutant kinases (313 kinase panel) (Homo sapiens, UniProt Q13557)
panel of more than 300 wild-type and mutant kinases (313 kinase panel) (Homo sapiens, UniProt Q13557), sequence (Q13557 whole entry, change not shown): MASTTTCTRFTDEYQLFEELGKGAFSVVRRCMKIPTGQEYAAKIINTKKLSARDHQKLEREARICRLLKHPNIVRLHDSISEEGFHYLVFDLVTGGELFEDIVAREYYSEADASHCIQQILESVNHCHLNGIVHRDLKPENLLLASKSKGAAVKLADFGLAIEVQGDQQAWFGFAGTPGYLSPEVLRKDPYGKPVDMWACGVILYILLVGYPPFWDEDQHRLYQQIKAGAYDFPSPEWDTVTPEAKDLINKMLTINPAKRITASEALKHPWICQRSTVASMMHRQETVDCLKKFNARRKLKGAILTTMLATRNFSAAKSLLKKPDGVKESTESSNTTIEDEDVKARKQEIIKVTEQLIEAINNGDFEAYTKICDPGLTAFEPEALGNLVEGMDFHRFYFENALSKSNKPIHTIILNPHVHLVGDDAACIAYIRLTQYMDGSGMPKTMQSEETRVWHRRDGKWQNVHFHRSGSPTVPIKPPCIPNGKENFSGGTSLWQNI

[4] = target: panel of more than 300 wild-type and mutant kinases (313 kinase panel) (Homo sapiens, UniProt O00311)
[5] = target: T2, panel of more than 300 wild-type and mutant kinases (313 kinase panel) (Homo sapiens, UniProt Q8TD19)
T2 sequence (Q8TD19 1-979): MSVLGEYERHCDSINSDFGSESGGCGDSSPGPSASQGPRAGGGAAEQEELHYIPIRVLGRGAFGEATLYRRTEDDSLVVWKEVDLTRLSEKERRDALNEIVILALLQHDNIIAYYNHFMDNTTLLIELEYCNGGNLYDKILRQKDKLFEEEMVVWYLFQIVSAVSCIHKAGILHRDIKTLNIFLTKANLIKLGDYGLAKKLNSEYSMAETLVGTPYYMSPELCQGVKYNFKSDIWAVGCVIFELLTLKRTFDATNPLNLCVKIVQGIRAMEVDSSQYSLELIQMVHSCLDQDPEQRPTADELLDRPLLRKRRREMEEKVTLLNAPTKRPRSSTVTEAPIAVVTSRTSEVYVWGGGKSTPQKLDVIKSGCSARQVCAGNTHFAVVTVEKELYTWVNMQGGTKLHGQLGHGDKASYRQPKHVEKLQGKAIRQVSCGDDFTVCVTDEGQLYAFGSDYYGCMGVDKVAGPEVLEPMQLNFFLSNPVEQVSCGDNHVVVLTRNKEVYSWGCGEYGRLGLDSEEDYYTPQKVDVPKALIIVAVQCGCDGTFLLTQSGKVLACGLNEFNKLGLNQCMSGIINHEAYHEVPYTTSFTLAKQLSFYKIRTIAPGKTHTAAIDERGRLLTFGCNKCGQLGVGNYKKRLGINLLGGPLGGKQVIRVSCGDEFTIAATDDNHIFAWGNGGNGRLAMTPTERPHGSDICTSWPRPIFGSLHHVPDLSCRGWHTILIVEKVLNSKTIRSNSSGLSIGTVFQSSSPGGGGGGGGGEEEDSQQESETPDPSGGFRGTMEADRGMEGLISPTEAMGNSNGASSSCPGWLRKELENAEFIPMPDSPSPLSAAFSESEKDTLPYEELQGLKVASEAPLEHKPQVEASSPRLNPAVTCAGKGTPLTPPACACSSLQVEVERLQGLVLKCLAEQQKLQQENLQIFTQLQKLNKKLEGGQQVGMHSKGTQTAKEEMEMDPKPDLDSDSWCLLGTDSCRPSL

[6] = target: T3, panel of more than 300 wild-type and mutant kinases (313 kinase panel) (Homo sapiens, UniProt Q8IWQ3)
T3 sequence (Q8IWQ3 1-736): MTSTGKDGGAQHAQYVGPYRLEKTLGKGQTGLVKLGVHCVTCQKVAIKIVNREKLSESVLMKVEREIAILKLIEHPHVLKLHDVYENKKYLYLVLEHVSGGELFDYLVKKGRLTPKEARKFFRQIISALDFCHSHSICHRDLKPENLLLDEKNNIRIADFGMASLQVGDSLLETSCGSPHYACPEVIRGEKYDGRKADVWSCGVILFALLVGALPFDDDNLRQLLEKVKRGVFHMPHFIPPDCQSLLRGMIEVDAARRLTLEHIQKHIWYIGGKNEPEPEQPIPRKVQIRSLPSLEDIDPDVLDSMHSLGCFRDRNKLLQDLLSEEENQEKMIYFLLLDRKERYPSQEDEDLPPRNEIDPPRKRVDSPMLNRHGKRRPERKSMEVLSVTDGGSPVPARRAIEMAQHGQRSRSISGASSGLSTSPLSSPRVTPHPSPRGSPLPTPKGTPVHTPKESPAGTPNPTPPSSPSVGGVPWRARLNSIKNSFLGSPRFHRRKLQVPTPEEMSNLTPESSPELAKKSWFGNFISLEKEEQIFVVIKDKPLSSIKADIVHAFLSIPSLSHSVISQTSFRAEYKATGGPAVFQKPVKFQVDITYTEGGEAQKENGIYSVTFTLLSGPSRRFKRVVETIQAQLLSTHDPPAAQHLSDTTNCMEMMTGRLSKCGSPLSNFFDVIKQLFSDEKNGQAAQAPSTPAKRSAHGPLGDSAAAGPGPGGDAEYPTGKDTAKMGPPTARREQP

[7] = kinase CDK4/CycD3, 1 μM compound

SMILES: CO[C@H]1C[C@@H]2CC[C@@H](C)[C@@](O)(O2)C(=O)C(=O)N2CCCC[C@H]2C(=O)O[C@H]([C@H](C)C[C@@H]2CC[C@@H](OCCO)[C@H](OC)C2)CC(=O)[C@H](C)/C=C(\C)[C@@H](O)[C@@H](OC)C(=O)[C@H](C)C[C@H](C)/C=C/C=C/C=C/1C [everolimus]
- %-inhibition of TBK1 ([1]; kinase TBK1, 1 μM): -5%
- %-inhibition, CDK4/CycD3 [2, 7]: -9%
- %-inhibition, CaMK2δ ([3]; kinase CaMK2δ, 1 μM compound): -2.12%
- %-inhibition, CDC7/ASK ([4]; kinase CDC7/ASK, 1 μM compound): -6%
- %-inhibition of NEK9 ([5]; kinase NEK9, 1 μM): -11%
- %-inhibition, BRSK2 ([6]; kinase BRSK2, 1 μM compound): -0.919%

SMILES: CCN(CC)CCNC(=O)c1c(C)[nH]c(/C=C2\C(=O)Nc3ccc(F)cc32)c1C [sunitinib]
- %-inhibition of TBK1 ([1]; kinase TBK1, 1 μM): 56%

SMILES: CC(=O)Nc1cccc(-n2c(=O)n(C3CC3)c(=O)c3c(Nc4ccc(I)cc4F)n(C)c(=O)c(C)c32)c1 [trametinib]
- %-inhibition of TBK1 ([1]; kinase TBK1, 1 μM): -4.47%
- %-inhibition, CDK4/CycD3 [2, 7]: 5.62%
- %-inhibition, CaMK2δ ([3]; kinase CaMK2δ, 1 μM compound): -2.19%
- %-inhibition, CDC7/ASK ([4]; kinase CDC7/ASK, 1 μM compound): -8%
- %-inhibition of NEK9 ([5]; kinase NEK9, 1 μM): -3%
- %-inhibition, BRSK2 ([6]; kinase BRSK2, 1 μM compound): 5.38%

SMILES: O=S(=O)(c1cccc2cnccc12)N1CCCNCC1 [fasudil]
- %-inhibition of TBK1 ([1]; kinase TBK1, 1 μM): -5%
- %-inhibition, CDK4/CycD3 [2, 7]: -2.33%
- %-inhibition, CaMK2δ ([3]; kinase CaMK2δ, 1 μM compound): 3.46%
- %-inhibition, CDC7/ASK ([4]; kinase CDC7/ASK, 1 μM compound): -7%
- %-inhibition of NEK9 ([5]; kinase NEK9, 1 μM): -3%
- %-inhibition, BRSK2 ([6]; kinase BRSK2, 1 μM compound): 6%

SMILES: N#CC[C@H](C1CCCC1)n1cc(-c2ncnc3[nH]ccc23)cn1 [ruxolitinib]
- %-inhibition of TBK1 ([1]; kinase TBK1, 1 μM): 21%
- %-inhibition, CDK4/CycD3 [2, 7]: -1.74%
- %-inhibition, CaMK2δ ([3]; kinase CaMK2δ, 1 μM compound): 81%
- %-inhibition, CDC7/ASK ([4]; kinase CDC7/ASK, 1 μM compound): 5.36%
- %-inhibition of NEK9 ([5]; kinase NEK9, 1 μM): 8%
- %-inhibition, BRSK2 ([6]; kinase BRSK2, 1 μM compound): -12%

SMILES: COc1cc2nccc(Oc3ccc(NC(=O)C4(C(=O)Nc5ccc(F)cc5)CC4)cc3)c2cc1OC [cabozantinib]
- %-inhibition of TBK1 ([1]; kinase TBK1, 1 μM): -0.506%
- %-inhibition, CDK4/CycD3 [2, 7]: -5%
- %-inhibition, CaMK2δ ([3]; kinase CaMK2δ, 1 μM compound): 0.942%
- %-inhibition, CDC7/ASK ([4]; kinase CDC7/ASK, 1 μM compound): -3.4%
- %-inhibition of NEK9 ([5]; kinase NEK9, 1 μM): 1.26%
- %-inhibition, BRSK2 ([6]; kinase BRSK2, 1 μM compound): 5.62%

SMILES: CC(C)(C)c1nc(-c2cccc(NS(=O)(=O)c3c(F)cccc3F)c2F)c(-c2ccnc(N)n2)s1 [dabrafenib]
- %-inhibition of TBK1 ([1]; kinase TBK1, 1 μM): -1.15%
- %-inhibition, CaMK2δ ([3]; kinase CaMK2δ, 1 μM compound): -0.23%
- %-inhibition, CDC7/ASK ([4]; kinase CDC7/ASK, 1 μM compound): -6%
- %-inhibition of NEK9 ([5]; kinase NEK9, 1 μM): 101%
- %-inhibition, BRSK2 ([6]; kinase BRSK2, 1 μM compound): 30%

SMILES: C[C@@H](Oc1cc(-c2cnn(C3CCNCC3)c2)cnc1N)c1c(Cl)ccc(F)c1Cl [crizotinib]
- %-inhibition of TBK1 ([1]; kinase TBK1, 1 μM): 1.42%
- %-inhibition, CDK4/CycD3 [2, 7]: 7%
- %-inhibition, CaMK2δ ([3]; kinase CaMK2δ, 1 μM compound): 4%
- %-inhibition of NEK9 ([5]; kinase NEK9, 1 μM): 57%
- %-inhibition, BRSK2 ([6]; kinase BRSK2, 1 μM compound): 8%

SMILES: CCCS(=O)(=O)Nc1ccc(F)c(C(=O)c2c[nH]c3ncc(-c4ccc(Cl)cc4)cc23)c1F [vemurafenib]
- %-inhibition of TBK1 ([1]; kinase TBK1, 1 μM): -0.81%
- %-inhibition, CDK4/CycD3 [2, 7]: -3.26%
- %-inhibition, CaMK2δ ([3]; kinase CaMK2δ, 1 μM compound): -0.235%
- %-inhibition, CDC7/ASK ([4]; kinase CDC7/ASK, 1 μM compound): -7%
- %-inhibition of NEK9 ([5]; kinase NEK9, 1 μM): -2.2%
- %-inhibition, BRSK2 ([6]; kinase BRSK2, 1 μM compound): -6%

SMILES: COc1cc2c(Nc3ccc(Br)cc3F)ncnc2cc1OCC1CCN(C)CC1 [vandetanib]
- %-inhibition of TBK1 ([1]; kinase TBK1, 1 μM): 0.911%
- %-inhibition, CDK4/CycD3 [2, 7]: -9%
- %-inhibition, CaMK2δ ([3]; kinase CaMK2δ, 1 μM compound): 10%
- %-inhibition, CDC7/ASK ([4]; kinase CDC7/ASK, 1 μM compound): -6.41%
- %-inhibition of NEK9 ([5]; kinase NEK9, 1 μM): -7%
- %-inhibition, BRSK2 ([6]; kinase BRSK2, 1 μM compound): -10%

SMILES: C#Cc1cccc(Nc2ncnc3cc(OCCOC)c(OCCOC)cc23)c1 [erlotinib]
- %-inhibition of TBK1 ([1]; 1 µM): 26%
- %-inhibition, CDK4/CycD3 ([2]; 1 µM): 1.86%
- %-inhibition, CaMK2δ ([3]; 1 µM): -11%
- %-inhibition, CDC7/ASK ([4]; 1 µM): 0.905%
- %-inhibition of NEK9 ([5]; 1 µM): 7%
- %-inhibition, BRSK2 ([6]; 1 µM): 3.75%

SMILES: Cc1ccc(C(=O)Nc2ccc(CN3CCN(C)CC3)c(C(F)(F)F)c2)cc1C#Cc1cnc2cccnn12 [ponatinib]
- %-inhibition, CDK4/CycD3 [2, 7]: 24%
- %-inhibition, CDC7/ASK ([4]; kinase CDC7/ASK, 1 μM compound): -7.45%
- %-inhibition of NEK9 ([5]; kinase NEK9, 1 μM): 17%
- %-inhibition, BRSK2 ([6]; kinase BRSK2, 1 μM compound): -11%

SMILES: Cc1nc(Nc2ncc(C(=O)Nc3c(C)cccc3Cl)s2)cc(N2CCN(CCO)CC2)n1 [dasatinib]
- %-inhibition, CDK4/CycD3 [2, 7]: 2.8%
- %-inhibition, CaMK2δ ([3]; kinase CaMK2δ, 1 μM compound): -7.61%
- %-inhibition, CDC7/ASK ([4]; kinase CDC7/ASK, 1 μM compound): 3%

SMILES: COc1cc(Nc2c(C#N)cnc3cc(OCCCN4CCN(C)CC4)c(OC)cc23)c(Cl)cc1Cl [bosutinib]
- %-inhibition of TBK1 ([1]; kinase TBK1, 1 μM): 32%
- %-inhibition, CDC7/ASK ([4]; kinase CDC7/ASK, 1 μM compound): -5.36%
- %-inhibition of NEK9 ([5]; 1 µM): -4.25%
- %-inhibition, BRSK2 ([6]; kinase BRSK2, 1 μM compound): -12%

SMILES: CS(=O)(=O)CCNCc1ccc(-c2ccc3ncnc(Nc4ccc(OCc5cccc(F)c5)c(Cl)c4)c3c2)o1 [lapatinib]
- %-inhibition of TBK1 ([1]; kinase TBK1, 1 μM): -14%
- %-inhibition, CDK4/CycD3 ([2]; 1 µM): 1.35%
- %-inhibition, CaMK2δ ([3]; kinase CaMK2δ, 1 μM compound): -33%
- %-inhibition, CDC7/ASK ([4]; kinase CDC7/ASK, 1 μM compound): 3%
- %-inhibition, BRSK2 ([6]; kinase BRSK2, 1 μM compound): 3.58%

From paper PMC3961306, “Comparison of the Cancer Gene Targeting and Biochemical Selectivities of All Targeted Kinase Inhibitors Approved for Clinical Use” (PLoS ONE, 2014)
